We go through 6 molecules from patent EP4793276A1, “DRUG FOR DIAGNOSING DIABETIC NEPHROPATHY AND USE THEREOF” (Fudan University, priority 2023, dated 2025).

In data set [1] the test system is db/db model mice. The data set can be described thus: SPECT in vivo imaging. The conditions noted are these: 11.1 MBq via the tail vein, acquisition up to 2 hours, FIG.3. Here is the method: SPECT scans were performed using the nanoScan SPECT/CT scanner (Mediso Medical Imaging Systems, Hungary). […] Immediately afterward, the radiation signal was acquired in three-dimensional mode every 30 minutes for up to 2 hours. The energy window is set to 360-700 keV. After completing the SPECT scan, mice were injected with iodofol (Optiray 350; Guerbet) via the tail vein at a dose of 5 µL/g body weight, followed immediately by a 30-second CT scan (X-ray source: 50 kV/980 µA, 480 projections; mice were anesthetized with 1.5% (v/v) isoflurane during both the SPECT and CT scans).

Data set [2] relates to db/db model mice. The data set can be described thus: PET in vivo imaging. The conditions noted are these: 15 MBq intravenous, 90 minutes acquisition, FIG.3. Here is the method:
PET scans were performed using an Inveon scanner (Siemens Medical Solutions Knoxville, TN, USA). Mice (m/m and db/db mice) were anesthetized with 1.5% (v/v) isoflurane and then fixed in the center of the FOV of a PET scanner. Immediately after intravenous injection of ^18F-KIDJI-004 (15 MBq), 90 minutes of radiation signals were acquired in three-dimensional mode. The energy window is 350-750 keV. After the PET scan was completed, mice were intravenously injected with iodofol (35%) (Optiray 350; Guerbet) at a dose of 5 µL/g body weight, followed immediately by a 30-second CT scan (X-ray source: 70 kV/88 mA, FOV: 60 mm). Mice were anesthetized with 1.5% (v/v) isoflurane during PET and CT scans.

The test system of data set [3] is diabetic nephropathy mice. The data set can be described thus: Ex vivo autoradiography of kidneys after tail vein injection. The conditions noted are these: mouse. The text has this:
The spontaneous type 2 diabetes mice model was developed using the db/db homozygous mice (BKS.Cg-Dock7m+/+LeprdbJ; JAX® Mice Strain Code 607) discovered by the Jackson Laboratory in the United States. […] Their pathogenesis is very similar to that of subjects with type 2 diabetes. The control group mice were either normal mice (m/m) or heterozygous mice (m/db).
Sixty minutes later, the mice were euthanized by dislocation, and their kidneys were removed and rapidly frozen in dry ice. 20 µm frozen sections were prepared using a cryostat (Reward, RWD Minux FS800). Frozen sections were held in contact with the developing plate (FUJIFILM; BAS-IP SR 2025E) for 2 hours, and images were read and quantitatively analyzed using an autoradiography scanner (CR-35 Bio; Elysia-Raytest).

`O=C(c1ccc([131I])cc1)N1CCc2c(nnn2-c2ncccn2)C1` [^131I-KIDJI-007, (4-iodophenyl)(1-(pyrimidin-2-yl)-1,4,6,7-tetrahydro-5H-[1,2,3]triazolo[4,5-c]pyridin-5-yl) methyl ketone]: in the data set on db/db model mice [1], the “accumulation in the kidneys of normal mice” value (“accumulation in the kidneys” for short) is on record as “no significant accumulation” and the “accumulation in the renal pelvis of the kidneys of db/db model mice” value (from here on “accumulation … of db/db model mice”) is listed as “significantly accumulated”. For `Cc1cc(C(=O)N2Cc3nnn(-c4ncccn4)c3C[C@@H]2C)cc([18F])n1` [^18F-KIDJI-004, (S)-(2-fluoro-6-methylpyridin-4-yl)(6-methyl-1-(pyrimidin-2-yl)-1,4,6,7-tetrahydro-5H-[1,2,3]triazolo[4,5-c]pyridin-5-yl) methyl ketone], in the data set with db/db model mice [2], the “accumulation in the kidneys” value was “no significant accumulation” and the “accumulation … of db/db model mice” value is given as “significantly accumulated”. Take `COc1ccc(C(=O)N2CCc3c(nnn3-c3ncccn3)C2)cc1[131I]` [^131I-KIDJI-008, (3-iodo-4-methoxyphenyl)(1-(pyrimidin-2-yl)-1,4,6,7-tetrahydro-5H-[1,2,3]triazolo[4,5-c]pyridin-5-yl) methyl ketone]: in the data set on db/db model mice [1], the “accumulation in the kidneys” value was “no significant accumulation” and the “accumulation … of db/db model mice” value is “significantly accumulated”. The corresponding values for `O=C(c1ccc([131I])cc1F)N1CCc2c(nnn2-c2ncccn2)C1` [^131I-KIDJI-010, (2-fluoro-4-iodophenyl)(1-(pyrimidin-2-yl)-1,4,6,7-tetrahydro-5H-[1,2,3]triazolo[4,5-c]pyridin-5-yl) methyl ketone] are “no significant accumulation” and “significantly accumulated”. In the same order, the values of `O=C(c1ccc([N+](=O)[O-])cc1[131I])N1CCc2c(nnn2-c2ncccn2)C1` [^131I-KIDJI-009, (2-iodo-4-nitro)(1-(pyrimidin-2-yl)-1,4,6,7-tetrahydro-5H-[1,2,3]triazolo[4,5-c]pyridin-5-yl) methyl ketone] are “no significant accumulation” and “significantly accumulated”. Turning to `C[C@H]1Cc2c(nnn2-c2ncccn2)CN1C(=O)c1ccnc(C(F)(F)F)c1[18F]` [^18F-KIDJI-003, (S)-(3-fluoro-2-(trifluoromethyl)pyridin-4-yl)(6-methyl-1-(pyrimidin-2-yl)-1,4,6,7-tetrahydro-5H-[1,2,3]triazolo[4,5-c]pyridin-5-yl) methyl ketone], in data set [3], the “accumulation in the renal pelvis of diabetic nephropathy mice” value was “significant accumulation”.
